Measured values published in ChEMBL document CHEMBL4808184, “Discovery and Optimization of DNA Gyrase and Topoisomerase IV Inhibitors with Potent Activity against Fluoroquinolone-Resistant Gram-Positive Bacteria” (J Med Chem, 2021).
In brackets after ≈: the same amount, converted by molar mass.

Tests used:
physchem [1] = test: physchem
HepG2 = test: cells; conditions: Homo sapiens, HepG2, 72 h
K562 = test: cells; conditions: Homo sapiens, K562, 72 h
Staphylococcus aureus [2] = test: microbe, parasite or virus in culture; conditions: ATCC 49951
Staphylococcus aureus [3] = test: microbe, parasite or virus in culture; conditions: ATCC 49951; remark: listed apart in the source
physchem [4] = conditions: octanol/water, pH 7.4
in vitro [5] = conditions: human, plasma
in vivo [6] = conditions: rat, po, 5 mg/kg
in vitro [7] = conditions: Sprague-Dawley, rat, plasma
in vivo [8] = conditions: rat, po, 5 mg/kg; remark: listed apart in the source
in vivo [9] = conditions: rat, iv
in vivo [10] = conditions: rat, po, 5 mg/kg; remark: listed apart in the source
in vitro [11] = conditions: CD1, mouse, plasma
in vivo [12] = conditions: rat, 5 mg/kg

Structure (SMILES)	pKa (physchem [1])	MIC (Staphylococcus aureus [2])	MIC (Staphylococcus aureus [3])	logD (physchem [4])	further results
Cc1c(N2CC[C@@H]([C@H](C)N)C2)c(F)cc2cc(O)c(=O)n(C3CC3)c12	8.2	0.5 µg/mL (≈ 1.45 µM)			EC50 (HepG2): 74 µM; EC50 (K562): 65 µM
C[C@H]1COc2c(N3CC[C@@H](C4(N)CC4)C3)cc(F)c3cc(C(=O)O)c(=O)n1c23		2 µg/mL (≈ 5.16 µM)	0.25 µg/mL (≈ 0.645 µM)	-0.4	
C[C@H]1COc2c(N3CC[C@@H](C4(N)CCC4)C3)c(F)cc3cc(C(=O)O)c(=O)n1c23	4.9	2 µg/mL (≈ 4.98 µM)	0.125 µg/mL (≈ 0.311 µM)	-1.42	
C[C@H]1COc2c(N3CC[C@@H](C4(N)CC4)C3)c(F)c(Cl)c3cc(C(=O)O)c(=O)n1c23		0.5 µg/mL (≈ 1.19 µM)	≤ 0.03 µg/mL	-0.46	
C[C@H]1COc2c(N3CC(CN)C4(CCC4)C3)c(F)cc3cc(C(=O)O)c(=O)n1c23 (some centres undefined)	5.2	2 µg/mL (≈ 4.98 µM)	0.125 µg/mL (≈ 0.311 µM)	-0.66	
C[C@H]1COc2c(N3CCC(=C(Cl)CN)CC3)c(F)cc3cc(C(=O)O)c(=O)n1c23		> 32 µg/mL	4 µg/mL (≈ 9.48 µM)	-0.39	
Cc1c(N2CC[C@@H](C3(N)CC3)C2)c(F)cc2cc(-c3noc(=O)[nH]3)c(=O)n(C3CC3)c12	5.4	0.125 µg/mL (≈ 0.294 µM)	0.125 µg/mL (≈ 0.294 µM)	-0.32	
C[C@H]1COc2c(N3CC[C@@H](C4(N)CC4)C3)cc(C#N)c3cc(C(=O)O)c(=O)n1c23		2 µg/mL (≈ 5.07 µM)	0.25 µg/mL (≈ 0.634 µM)	-0.55	
COc1c(N2C[C@@H]3CCCN[C@@H]3C2)c(F)cc2c(=O)c(C(=O)O)cn(C3CC3)c12 [MOXIFLOXACIN]	6.7	4 µg/mL (≈ 9.96 µM)	0.06 µg/mL (≈ 0.149 µM)		EC50 (HepG2): > 100 µM; EC50 (K562): > 100 µM
C[C@H]1COc2c(N3CC[C@@H](C4(N)CC4)C3)c(F)c(F)c3cc(C(=O)O)c(=O)n1c23		1 µg/mL (≈ 2.47 µM)	0.06 µg/mL (≈ 0.148 µM)	-0.85	
C[C@H]1COc2c(N3CC[C@@H](C4(N)CC4)C3)c(F)c(C#N)c3cc(C(=O)O)c(=O)n1c23		1 µg/mL (≈ 2.42 µM)	0.125 µg/mL (≈ 0.303 µM)	-1.86	
Cc1c(N2CC[C@@H](C3(N)CC3)C2)c(F)cc2cc(C#N)c(=O)n(C3CC3)c12	8.4	0.06 µg/mL (≈ 0.164 µM)	0.06 µg/mL (≈ 0.164 µM)	1.19	
C[C@H]1COc2c(N3CC[C@@H](C4(N)CC4)C3)ccc3cc(C(=O)O)c(=O)n1c23		4 µg/mL (≈ 10.8 µM)			
Cc1c(N2CC[C@@H](C3(N)CC3)C2)c(F)cc2cc(C(N)=O)c(=O)n(C3CC3)c12	8.4	1 µg/mL (≈ 2.6 µM)	0.25 µg/mL (≈ 0.65 µM)		
Cc1c(N2CCC(C3(N)CC3)C2)c(F)cc2c(-c3cc(O)no3)cc(=O)n(C3CC3)c12 (centres undefined)	4.7	2 µg/mL (≈ 4.71 µM)	1 µg/mL (≈ 2.36 µM)	0.29	
C[C@H]1COc2c(N3CC4C[C@@H](OC(F)F)C[C@@H](N)[C@H]4C3)c(F)cc3cc(C(=O)O)c(=O)n1c23 (single isomer, unassigned)	5.2	1 µg/mL (≈ 2.14 µM)	0.06 µg/mL (≈ 0.128 µM)	-0.4	
C[C@@H]1COc2c(N3CC[C@@H](C4(N)CC4)C3)c(F)cc3cc(C(=O)O)c(=O)n1c23		> 32 µg/mL	16 µg/mL (≈ 41.3 µM)	-0.92	
Cc1c(N2CC[C@@H](C3(N)CC3)C2)c(F)cc2cc(-c3ncon3)c(=O)n(C3CC3)c12	8.4	0.5 µg/mL (≈ 1.22 µM)	0.25 µg/mL (≈ 0.611 µM)	1.46	
C[C@H]1COc2c(N3C[C@H]4[C@H](C3)OCC[C@@H]4N)c(F)cc3cc(C(=O)O)c(=O)n1c23	4.8	1 µg/mL (≈ 2.48 µM)	≤ 0.03 µg/mL	-1.72	
Cc1c(N2CCC(C3(N)CC3)C2)c(F)cc2c(-c3noc(=S)[nH]3)cc(=O)n(C3CC3)c12 (centres undefined)	2	4 µg/mL (≈ 9.06 µM)	4 µg/mL (≈ 9.06 µM)		
C[C@H]1COc2c(N3CCN(C)CC3)c(F)cc3cc(C(=O)O)c(=O)n1c23	4.5	> 32 µg/mL	16 µg/mL (≈ 44.3 µM)	-1.99	
Cc1c(N2CCC(C3(N)CC3)C2)c(F)cc2cc(C(=O)O)c(=O)n(C3CC3)c12 (centres undefined)	5.2	1 µg/mL (≈ 2.59 µM)	0.06 µg/mL (≈ 0.156 µM)	-0.97	fraction unbound at 4 h, 10 µM (in vitro [5]): 0.22; AUC(0-inf) at 24 h (in vivo [6]): 7.62 µM·h; fraction unbound at 4 h, 10 µM (in vitro [7]): 0.25; Tmax at 24 h (in vivo [8]): 1 h; half-life at 24 h (in vivo [9]): 1.32 h; EC50 (HepG2): > 100 µM; Cmax at 24 h (in vivo [10]): 2000 nM; fraction unbound at 4 h, 10 µM (in vitro [11]): 0.48; EC50 (K562): > 100 µM; Vd at 24 h (in vivo [12]): 0.69 L/kg
C[C@H]1COc2c(N3CC[C@@H](C4(N)CC4)C3)c(F)c(N)c3cc(C(=O)O)c(=O)n1c23		8 µg/mL (≈ 19.9 µM)	0.5 µg/mL (≈ 1.24 µM)	-0.97	
Cc1c(N2CCC(C3(N)CC3)C2)c(F)cc2c(Cc3noc(=O)[nH]3)cc(=O)n(C3CC3)c12 (centres undefined)	5.1	32 µg/mL (≈ 72.8 µM)	4 µg/mL (≈ 9.1 µM)	-0.74	

Structure (SMILES)	pKa (physchem [1])	MIC (Staphylococcus aureus [2])	MIC (Staphylococcus aureus [3])	logD (physchem [4])	further results
Cc1c(N2CCC(C3(N)CC3)C2)c(F)cc2c(Cc3cc(O)no3)cc(=O)n(C3CC3)c12 (centres undefined)	3.9	8 µg/mL (≈ 18.2 µM)	8 µg/mL (≈ 18.2 µM)	-0.9	
C[C@H]1COc2c(N3CC[C@H](O)C3)c(F)cc3cc(C(=O)O)c(=O)n1c23	5.2	> 32 µg/mL	0.5 µg/mL (≈ 1.44 µM)	-0.46	
C[C@H]1COc2c(N3CC[C@@H](C4(N)CC4)C3)c(C#N)cc3cc(C(=O)O)c(=O)n1c23		4 µg/mL (≈ 10.1 µM)	0.25 µg/mL (≈ 0.634 µM)	-1.77	
Cc1c(N2CC[C@@H](C3(N)CC3)C2)c(F)cc2cc(-c3nnco3)c(=O)n(C3CC3)c12	8.3	0.125 µg/mL (≈ 0.305 µM)	0.125 µg/mL (≈ 0.305 µM)		
CO[C@@H]1CC[C@@H](N)[C@H]2CN(c3c(F)cc4cc(C(=O)O)c(=O)n5c4c3OC[C@@H]5C)CC12 (single isomer, unassigned)	4.9	0.25 µg/mL (≈ 0.579 µM)	≤ 0.03 µg/mL	-1.28	
C[C@H]1Cc2c(N3CC[C@@H](C4(N)CC4)C3)c(F)cc3cc(C(=O)O)c(=O)n1c23		8 µg/mL (≈ 21.5 µM)	0.25 µg/mL (≈ 0.673 µM)	-0.51	
Cc1c(N2CCC(C3(N)CC3)C2)c(F)cc2c(-c3n[nH]c(=O)o3)cc(=O)n(C3CC3)c12 (centres undefined)	6.4	1 µg/mL (≈ 2.35 µM)	0.5 µg/mL (≈ 1.18 µM)		
CO[C@@H]1CC2CN(c3c(F)cc4cc(C(=O)O)c(=O)n5c4c3OC[C@@H]5C)C[C@@H]2[C@H](N)C1 (single isomer, unassigned)	5.2	0.25 µg/mL (≈ 0.579 µM)	≤ 0.03 µg/mL	-1.5	
C[C@H]1COc2c(N3CC4C[C@H](F)C[C@@H](N)[C@H]4C3)c(F)cc3cc(C(=O)O)c(=O)n1c23 (single isomer, unassigned)	5.07	0.06 µg/mL (≈ 0.143 µM)	≤ 0.03 µg/mL	-1.04	
C[C@H]1CCc2c(N3CC[C@@H](C4(N)CC4)C3)c(F)cc3cc(C(=O)O)c(=O)n1c23		1 µg/mL (≈ 2.59 µM)	0.06 µg/mL (≈ 0.156 µM)	-0.27	
Cc1c(N2CC[C@@H](C3(N)CC3)C2)c(F)cc2cc(-c3n[nH]c(=O)o3)c(=O)n(C3CC3)c12	7.2	0.06 µg/mL (≈ 0.141 µM)	0.125 µg/mL (≈ 0.294 µM)		
C[C@H]1COc2c(N3CC4[C@H](C3)[C@H](N)CCC4(F)F)c(F)cc3cc(C(=O)O)c(=O)n1c23 (single isomer, unassigned)	5.1	0.125 µg/mL (≈ 0.286 µM)	≤ 0.03 µg/mL	-0.78	
Cc1c(N2CC[C@@H](C3(N)CC3)C2)c(F)cc2cc(Cc3n[nH]c(=O)o3)c(=O)n(C3CC3)c12	8.8	32 µg/mL (≈ 72.8 µM)	32 µg/mL (≈ 72.8 µM)	0.87	
C[C@H]1COc2c(N3CC4OCC[C@@H](N)[C@H]4C3)c(F)cc3cc(C(=O)O)c(=O)n1c23 (single isomer, unassigned)	5.2	1 µg/mL (≈ 2.48 µM)	0.125 µg/mL (≈ 0.31 µM)	-1.66	
C[C@H]1CCOc2c(N3CC[C@@H](C4(N)CC4)C3)c(F)cc3cc(C(=O)O)c(=O)n1c23		8 µg/mL (≈ 19.9 µM)	0.25 µg/mL (≈ 0.623 µM)	0.01	
C[C@H]1COc2c(N3C[C@@H]4CCCN[C@@H]4C3)c(F)cc3cc(C(=O)O)c(=O)n1c23	5	32 µg/mL (≈ 82.6 µM)	1 µg/mL (≈ 2.58 µM)	-1.46	
C[C@H]1COc2c(N3CC[C@@H](C4(N)CC4)C3)c(Cl)cc3cc(C(=O)O)c(=O)n1c23		32 µg/mL (≈ 79.2 µM)	2 µg/mL (≈ 4.95 µM)	-1.12	
C[C@H]1COc2c(N3CC[C@H](N)C3)c(F)cc3cc(C(=O)O)c(=O)n1c23	4.8	> 32 µg/mL	2 µg/mL (≈ 5.76 µM)	< -2	
C[C@H]1COc2c(N3CC4CCC[C@@H](N)[C@H]4C3)c(F)cc3cc(C(=O)O)c(=O)n1c23 (single isomer, unassigned)	5.2	0.25 µg/mL (≈ 0.623 µM)	≤ 0.03 µg/mL	-0.68	
C[C@H]1COc2c(N3CC[C@@H](C4(N)CC4)C3)cc(Cl)c3cc(C(=O)O)c(=O)n1c23		1 µg/mL (≈ 2.48 µM)			
Cc1c(N2CC3CC3(N)C2)c(F)cc2c(CN)cc(=O)n(C3CC3)c12 (centres undefined)	7.6	0.125 µg/mL (≈ 0.365 µM)		1.1	EC50 (HepG2): 82 µM; EC50 (K562): 40 µM
Cc1c(N2CCC(C3(N)CC3)C2)c(F)cc2c(Cc3noc(=S)[nH]3)cc(=O)n(C3CC3)c12 (centres undefined)	2.5	8 µg/mL (≈ 17.6 µM)	8 µg/mL (≈ 17.6 µM)	-0.3	
COc1cc2cc(C(=O)O)c(=O)n3c2c(c1N1CC[C@@H](C2(N)CC2)C1)OC[C@@H]3C		> 32 µg/mL	32 µg/mL (≈ 80.1 µM)	-1.22	
C[C@H]1COc2c(N3C[C@@H]4CCC[C@H](N)[C@H]4C3)c(F)cc3cc(C(=O)O)c(=O)n1c23	5.2	0.5 µg/mL (≈ 1.25 µM)	0.06 µg/mL (≈ 0.149 µM)	-1.03	
